pIC50: −log10 of the molar value. Where two headings read alike, the source gives them in different places.
Columns and labels:
IMP-1 = IMP-1 (Serratia marcescens, UniProt P52699); test: biochemical; assay type: biochemical; details: CCF2-FA substrate, 2 pM enzyme, 2 hours at 25° C.
Summary of the method: (§1)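 Inhibitor was mixed with the metallo-β-lactamase and CCF2-FA. After 2 hours at 25° C, fluorescence of the coumarin–fluorescein cephalosporin substrate was read. IC50 was calculated with a 4-parameter fit.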

NDM-1 = NDM-1 (Klebsiella pneumoniae, UniProt C7C422); test: biochemical; assay type: biochemical; details: fluorescence assay, CCF2-FA substrate, 1 pM enzyme, 2 hours at 25° C.; read-out: NDM-1 IC50
Summary of the method: as §1

VIM-1 = VIM-1 (Pseudomonas aeruginosa (strain ATCC 15692 / DSM 22644 / CIP 104116 / JCM 14847 / LMG 12228 / 1C / PRS 101 / PAO1), UniProt A0A0F7KYQ8); test: biochemical; details: CCF2-FA substrate, 30 pM enzyme, 2 hours at 25° C.
Summary of the method: as §1

[1] = tested on: Escherichia coli expressing NDM-1 (CLB30005, CLB30016); assay type: cell-based; details: with imipenem 1 μg/ml; 95% inhibition of bacterial growth
Summary of the method: (§2)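 Colonies grown overnight on blood agar at 35° C were suspended in saline, diluted 1:100 into 1.1×CAMHB and dispensed. Imipenem was added to 1 μg/ml, then test compound. After 22 hours to 24 hours at 35° C, absorbance was recorded.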

[2] = tested on: Klebsiella pneumoniae expressing VIM-1 (IHMA599644); assay type: cell-based; details: with imipenem 1 μg/ml; 95% inhibition of bacterial growth
Summary of the method: as §2

[3] = tested on: Serratia marcescens expressing IMP-1 (CL5741); assay type: cell-based; details: with imipenem 1 μg/ml; 95% inhibition of bacterial growth
Summary of the method: as §2

[4] = tested on: Pseudomonas aeruginosa efflux+ (MB9798), IMP-1; assay type: cell-based; details: concentration restoring susceptibility to imipenem at 2 μg/mL in the presence of a class A, C, D serine β-lactamase inhibitor closely related to relebactam
Summary of the method: (§3)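 Microbroth MIC tests in PAO1-background strains with fixed imipenem and/or ceftazidime, usually at the CLSI breakpoint, plus fixed class A/C β-lactamase inhibitor against AmpC. MBL inhibitor titrated; concentration restoring susceptibility recorded and compared as fold difference between efflux+ MB9798 and efflux− MB9799.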

[5] = tested on: Pseudomonas aeruginosa efflux− (MB9799), IMP-1; assay type: cell-based; details: concentration restoring susceptibility to imipenem at 2 μg/mL in the presence of a class A, C, D serine β-lactamase inhibitor closely related to relebactam
Summary of the method: as §3

[6] = tested on: Pseudomonas aeruginosa MB9798 vs MB9799; details: ratio MITC95 PA_9798/MITC95 PA_9799
Summary of the method: as §3

[7] = fluorescence assay, read-out: IMP-1 IC50
[8] = fluorescence assay, read-out: VIM-1 IC50

Chain of NDM-1 (C7C422 whole entry, looked up, species assumed): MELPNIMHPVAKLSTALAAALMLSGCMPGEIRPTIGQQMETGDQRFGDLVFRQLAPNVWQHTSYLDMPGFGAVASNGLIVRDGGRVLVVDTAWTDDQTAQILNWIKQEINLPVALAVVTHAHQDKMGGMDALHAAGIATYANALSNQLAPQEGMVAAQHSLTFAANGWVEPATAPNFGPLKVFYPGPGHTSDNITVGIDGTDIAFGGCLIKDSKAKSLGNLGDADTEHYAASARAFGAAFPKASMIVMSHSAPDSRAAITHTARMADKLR
Chain of IMP-1 (P52699 whole entry, looked up, species assumed): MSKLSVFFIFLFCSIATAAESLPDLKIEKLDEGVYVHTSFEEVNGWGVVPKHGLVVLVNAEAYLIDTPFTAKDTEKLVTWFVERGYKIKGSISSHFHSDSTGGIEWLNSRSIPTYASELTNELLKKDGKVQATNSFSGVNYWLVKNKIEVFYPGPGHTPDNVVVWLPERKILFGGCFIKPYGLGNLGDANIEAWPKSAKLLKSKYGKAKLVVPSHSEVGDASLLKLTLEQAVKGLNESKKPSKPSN

Row | Compound | pIC50 (IMP-1; IMP-1 IC50, fluorescence assay) | pIC50 (NDM-1) | pIC50 (VIM-1; VIM-1 IC50, fluorescence assay) | Escherichia coli expressing NDM-1 (CLB30016) MITC95 [1] | Klebsiella pneumoniae expressing VIM-1 (IHMA599644) MITC95 [2] | Serratia marcescens expressing IMP-1 (CL5741) MITC95 [3] | P. aeruginosa expressing IMP-1, efflux + (MB9798) MITC95 [4] | P. aeruginosa expressing IMP-1, efflux − (MB9799) MITC95 [5] | Efflux ratio [6] | pIC50 (IMP-1; [7]) | pIC50 (VIM-1; [8])
1 | Nc1nc2c(-c3ccc(S(=O)(=O)NC[C@H]4CCNC4)c(S(N)(=O)=O)c3-c3nnn[nH]3)cccc2s1 [Example 73, 4-(2-amino-1,3-benzothiazol-4-yl)-N^1-[(3S)-pyrrolidin-3-ylmethyl]-3-(1H-tetrazol-5-yl)benzene-1,2-disulfonamide] | 9.80 | 10.48 | 9.90 | 1.563 µM | 3.125 µM | 1.563 µM | 0.7813 µM | 1.563 µM | 0.50 |  | 
2 | NC[C@H]1CCN(S(=O)(=O)c2ccc(-c3cccc4sc(N)nc34)c(-c3nnn[nH]3)c2S(N)(=O)=O)C1 [Example 74, 3-(2-amino-1,3-benzothiazol-4-yl)-6-{[(3R)-3-(aminomethyl)pyrrolidin-1-yl]sulfonyl}-2-(1H-tetrazol-5-yl)benzenesulfonamide] | 9.08 | 9.19 | 8.94 | 2.344 µM | 3.125 µM | 2.344 µM | 1.172 µM | 1.172 µM | 1.00 |  | 
3 | Nc1nc2c(-c3ccc(S(=O)(=O)NC[C@@H]4CCNC4)c(S(N)(=O)=O)c3-c3nnn[nH]3)cccc2s1 [Example 75, 4-(2-amino-1,3-benzothiazol-4-yl)-N^1-[(3R)-pyrrolidin-3-ylmethyl]-3-(1H-tetrazol-5-yl)benzene-1,2-disulfonamide] | 9.80 | 10.68 | 9.94 | 1.563 µM | 3.125 µM | 1.563 µM | 0.7813 µM | 0.7813 µM | 1.00 |  | 
4 | CN1CC[C@@H](CNS(=O)(=O)c2ccc(-c3cccc4sc(N)nc34)c(-c3nnn[nH]3)c2S(N)(=O)=O)C1 [Example 76, 4-(2-amino-1,3-benzothiazol-4-yl)-N^1-{[(3R)-1-methylpyrrolidin-3-yl]methyl}-3-(1H-tetrazol-5-yl)benzene-1,2-disulfonamide] |  | 10.55 | 9.89 | 3.125 µM | 3.125 µM | 1.563 µM | 0.7813 µM | 1.563 µM | 0.50 | 9.71 | 
5 | CN1CC[C@H](CNS(=O)(=O)c2ccc(-c3cccc4sc(N)nc34)c(-c3nnn[nH]3)c2S(N)(=O)=O)C1 [Example 77, 4-(2-amino-1,3-benzothiazol-4-yl)-N1-{[(3S)-1-methylpyrrolidin-3-yl]methyl}-3-(1H-tetrazol-5-yl)benzene-1,2-disulfonamide] |  | 10.47 | 9.88 | 3.125 µM | 6.25 µM | 1.563 µM | 0.7813 µM | 1.563 µM | 0.50 | 9.78 | 
6 | Nc1nc2c(-c3ccc(S(=O)(=O)N[C@H]4CN[C@H](CO)C4)c(S(N)(=O)=O)c3-c3nnn[nH]3)cccc2s1 [Example 78, 4-(2-amino-1,3-benzothiazol-4-yl)-N1-[(3R,5S)-5-(hydroxymethyl)pyrrolidin-3-yl]-3-(1H-tetrazol-5-yl)benzene-1,2-disulfonamide] |  | 10.65 | 9.74 | 3.125 µM | 3.125 µM | 1.563 µM | 0.7813 µM | 1.563 µM | 0.50 | 9.63 | 
7 | Nc1nc2c(-c3ccc(S(=O)(=O)N[C@@H]4CN[C@@H](CO)C4)c(S(N)(=O)=O)c3-c3nnn[nH]3)cccc2s1 [Example 79, 4-(2-amino-1,3-benzothiazol-4-yl)-N1-[(3S,5R)-5-(hydroxymethyl)pyrrolidin-3-yl]-3-(1H-tetrazol-5-yl)benzene-1,2-disulfonamide] |  | 10.37 | 9.74 | 1.563 µM | 3.125 µM | 1.563 µM | 0.7813 µM | 1.563 µM | 0.50 | 9.55 | 
8 | Nc1nc2c(-c3ccc(S(=O)(=O)N[C@@H]4CN[C@H](CO)C4)c(S(N)(=O)=O)c3-c3nnn[nH]3)cccc2s1 [Example 80, 4-(2-amino-1,3-benzothiazol-4-yl)-N1-[(3S,5S)-5-(hydroxymethyl)pyrrolidin-3-yl]-3-(1H-tetrazol-5-yl)benzene-1,2-disulfonamide] |  | 10.31 | 9.80 | 1.563 µM | 3.125 µM | 1.563 µM | 1.563 µM | 1.563 µM | 1.00 | 9.47 | 
9 | Nc1nc2c(-c3ccc(S(=O)(=O)N[C@H]4CN[C@@H](CO)C4)c(S(N)(=O)=O)c3-c3nnn[nH]3)cccc2s1 [Example 81, 4-(2-amino-1,3-benzothiazol-4-yl)-N1-[(3R,5R)-5-(hydroxymethyl)pyrrolidin-3-yl]-3-(1H-tetrazol-5-yl)benzene-1,2-disulfonamide] |  | 10.54 | 9.87 | 1.563 µM | 1.563 µM | 1.563 µM | 0.7813 µM | 1.563 µM | 0.50 | 9.72 | 
10 | Nc1nc2c(-c3ccc(S(=O)(=O)N[C@H]4CN[C@@H](C(=O)O)C4)c(S(N)(=O)=O)c3-c3nnn[nH]3)cccc2s1 [Example 82, (4R)-4-({[4-(2-amino-1,3-benzothiazol-4-yl)-2-sulfamoyl-3-(1H-tetrazol-5-yl)phenyl]sulfonyl}amino)-D-proline] |  | 10.31 | 9.71 | 6.25 µM | 12.5 µM | 12.5 µM | 3.125 µM | 6.25 µM | 0.50 | 9.69 | 
11 | Nc1nc2c(-c3ccc(S(=O)(=O)NC4(CO)CCNC4)c(S(N)(=O)=O)c3-c3nnn[nH]3)cccc2s1 (stereo not drawn) [Example 83, 4-(2-amino-1,3-benzothiazol-4-yl)-N1-[3-(hydroxymethyl)pyrrolidin-3-yl]-3-(1H-tetrazol-5-yl)benzene-1,2-disulfonamide] |  | 10.32 |  | 3.125 µM | 3.125 µM | 3.125 µM | 0.7813 µM | 1.563 µM | 0.50 | 9.58 | 9.68
12 | Nc1nc2c(-c3ccc(S(=O)(=O)NC4(CO)CCNC4)c(S(N)(=O)=O)c3-c3nnn[nH]3)cccc2s1 (stereo not drawn) [Example 84, 4-(2-amino-1,3-benzothiazol-4-yl)-N1-[3-(hydroxymethyl)pyrrolidin-3-yl]-3-(1H-tetrazol-5-yl)benzene-1,2-disulfonamide] |  | 10.21 |  | 1.563 µM | 3.125 µM | 3.125 µM | 1.563 µM | 1.563 µM | 1.00 | 9.39 | 9.57

From patent US10221163B2 (priority 2015, dated 2019)
